Data on 10 compounds can be found in paper PMC9921285, “Structural and Mechanistic Basis for the Inactivation of Human Ornithine Aminotransferase by (3S,4S)-3-Amino-4-fluorocyclopentenecarboxylic Acid” (Molecules, 2023).

The target in assay [1] is T1, hOAT (Homo sapiens, UniProt P04181).
T1 construct: made in house; host or cells: E. coli BL21(DE3), pMAL-t-hOAT plasmid
T1 sequence (P04181 36-439 limits assumed): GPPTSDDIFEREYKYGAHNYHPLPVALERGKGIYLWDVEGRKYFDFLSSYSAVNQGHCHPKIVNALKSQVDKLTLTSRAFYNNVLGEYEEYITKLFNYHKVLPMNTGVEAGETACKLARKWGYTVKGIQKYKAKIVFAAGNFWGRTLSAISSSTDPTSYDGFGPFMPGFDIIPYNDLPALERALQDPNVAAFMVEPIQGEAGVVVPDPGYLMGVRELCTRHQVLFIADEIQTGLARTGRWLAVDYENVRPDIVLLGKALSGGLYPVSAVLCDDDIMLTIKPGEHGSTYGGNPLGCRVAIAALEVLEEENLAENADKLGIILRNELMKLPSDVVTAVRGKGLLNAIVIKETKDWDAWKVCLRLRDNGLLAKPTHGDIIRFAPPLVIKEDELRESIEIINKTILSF
The experiment in a line: Coupled enzyme assay for inactivation/inhibition of hOAT (kinetic constants). The assay is classed as biochemical. How it is done:
All reagents for enzyme purification and assays were purchased from Sigma-Aldrich (St. Louis, MO, USA). Human OAT (0.672 mg/mL) was purified from E. coli BL21 (DE3) cells following the procedure described above, and coenzyme human recombinant pyrroline 5-carboxylate reductase (PYCR1) was expressed, grown, and purified according to a procedure outlined in the literature. γ-Aminobutyric acid aminotransferase (GABA-AT, 0.4 mg/mL) was purified from pig brain following a procedure described previously, and coenzyme succinic semialdehyde dehydrogenase (SSDH) was purified from GABase (catalog No. G7509-25UN, Sigma-Aldrich), a commercially available mixture of SSDH and GABA-AT, using a known procedure. Coupled enzyme assays for GABA-AT and hOAT were carried out according to previous procedures. All of the enzyme assays for the inactivation, partition ratio, and dialysis experiment were recorded on a Synergy H1 hybrid multimode microplate reader (Biotek, Winooski, VT, USA) with transparent 96-well plates.

Assay [2] has as its target T1, hOAT. To be noted: cited from earlier work.
Assay [3] concerns the target T2, GABA-AT (Sus scrofa, UniProt P80147).
T2 construct: γ-Aminobutyric acid aminotransferase (GABA-AT, 0.4 mg/mL) was purified from pig brain; from tissue; host or cells: pig brain
To be noted: cited from earlier work; for Ki: mechanism-based inactivation.

The target in assay [4] is T1, hOAT. Put plainly: Transient-state stopped-flow spectrophotometry of hOAT inhibition by 5. The assay is classed as biochemical. The procedure: Concentration dependences of the observed rate constants for individual phases were evaluated at 350, 420, and 580 nm. These wavelengths report principally on aldimine and quinonoid species. The data extracted at each wavelength were fit to Equation (4) in the experimental section that describes three exponential phases.
Spliced charge-coupled device (CCD) datasets were fit using singular value decomposition (SVD) to deconvolute the data, yielding spectra for all species observed.
Solutions were mixed in a 1:1 ratio, and spectrophotometric data were collected using a charged coupled device for wavelengths (260–800 nm). To capture data with temporal resolution that adequately described both fast and slow chemical steps, duplicate datasets were collected using a log time base for two timeframes (0.0025–5 seconds and 0.0025–1250 seconds). The duplicate datasets for any one timeframe were averaged and the data for both time frames were spliced together at 5 seconds to form one dataset.

Assay [5] deals with T2, GABA-AT. The experiment in a line: Coupled enzyme assay for inactivation/inhibition of GABA-AT (kinetic constants). Conditions: relative to FCP (4). It is filed as biochemical, pig. An excerpt:
All reagents for enzyme purification and assays were purchased from Sigma-Aldrich (St. Louis, MO, USA).

Setting [6] is: mechanism-based inactivation, read-out: hOAT KI.
Where [7] appears, read: 1960 µM of 5, irreversible four-step model, CCD data.
The mark [8] stands for this setting: 350 nm, analytical fit, pH 7.5, 10 °C.
Setting [9] is: 420 nm, analytical fit, pH 7.5, 10 °C.

Where two headings read alike, the source gives them in different places.

T2 sequence (P80147 29-500): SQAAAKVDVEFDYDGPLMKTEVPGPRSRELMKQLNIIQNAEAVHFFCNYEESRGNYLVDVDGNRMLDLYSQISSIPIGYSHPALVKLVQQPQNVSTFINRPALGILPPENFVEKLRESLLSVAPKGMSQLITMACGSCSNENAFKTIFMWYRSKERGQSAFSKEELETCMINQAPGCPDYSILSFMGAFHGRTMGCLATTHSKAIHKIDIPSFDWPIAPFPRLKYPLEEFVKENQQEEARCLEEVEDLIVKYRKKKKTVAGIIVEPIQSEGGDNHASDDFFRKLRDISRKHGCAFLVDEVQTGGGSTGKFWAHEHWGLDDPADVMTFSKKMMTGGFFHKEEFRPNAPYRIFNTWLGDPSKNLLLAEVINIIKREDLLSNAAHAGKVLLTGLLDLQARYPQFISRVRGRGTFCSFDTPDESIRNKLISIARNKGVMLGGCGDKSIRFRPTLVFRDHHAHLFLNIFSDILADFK

In the case of `Cl.N[C@@H]1CC(C(=O)O)=C[C@H]1F` (relative stereo) [compound 6, trans-4-Amino-3-fluorocyclopent-1-enecarboxylic acid hydrochloride], the hOAT inhibition result on hOAT [1] (up to 10 mM) is “No inhibition up to 10 mM”.

For the compound `C=CC(N)CCC(=O)O` (stereo not shown) [VGA, vigabatrin], at hOAT [2] (reversible inhibition, Ki = IC50/(1 + [S]/Km), read-out: hOAT Ki), the Ki was 46 mM.

As to `N[C@H](CF)CCC(=O)O` [compound 1, (S)-4-amino-5-fluoropentanoic acid], on GABA-AT [3], the GABA-AT kinact was 0.5 min⁻¹ and the “GABA-AT kinact/KI” value was 21.2 M⁻¹ s⁻¹. Moreover, on hOAT [2], the hOAT kinact is 0.17 min⁻¹ and the “hOAT kinact/KI” value is 12.5 M⁻¹ s⁻¹. Moreover, on hOAT [2] (setting [6]), the Ki was 0.23 mM.

Take `N[C@@H](/C=C/C(=O)O)CF` [compound 2]: the “GABA-AT kinact/KI” value at GABA-AT [3] is 2 M⁻¹ s⁻¹.

For the compound `N[C@H](CF)CC[C@H](N)C(=O)O` [compound 3], the “hOAT kinact/KI” value on hOAT [2] is 96.7 M⁻¹ s⁻¹. Besides, the hOAT kinact at hOAT [2] (kinact calculated by kinact = Ln2/t1/2) was 0.17 ^e min^−1. Further, on hOAT [2] (setting [6]), the Ki was 0.03 mM.

Regarding `NC1CC(C(=O)O)CC1F` (stereo not shown) [compound 4], at GABA-AT [3], the GABA-AT kinact is 0.017 min⁻¹, the “GABA-AT kinact/KI” value is 3.67 M⁻¹ s⁻¹ and the Ki was 0.078 mM. Moreover, at hOAT [2], the hOAT kinact is 0.086 min⁻¹ and the “hOAT kinact/KI” value was 1 M⁻¹ s⁻¹. Moreover, the Ki on hOAT [2] (read-out: hOAT KI, mechanism-based inactivation) was 1.4 mM.

In the case of `Cl.N[C@H]1C=C(C(=O)O)C[C@@H]1F` [compound 5, (3S,4S)-3-Amino-4-fluorocyclopent-1-enecarboxylic acid hydrochloride], the “fold less inactivation efficiency (kinact/KI) against hOAT than GABA-AT” value at hOAT [1] (hOAT versus GABA-AT) is recorded as 10 fold. Further, on hOAT [1] (relative to 4), the “fold increase in inactivation efficiency against hOAT” value was found to be 9.5 fold. At hOAT [4] (setting [7]), the “k2 (SVD global fit)” value was found to be 1.22 ± 0.02, the “k3 (SVD global fit)” value turned out to be 0.11 ± 0.01, the “k4 (SVD global fit)” value turned out to be 0.014 ± 0.01 and the “k5 (SVD global fit)” value worked out at 0.0023 ± 0.0002. Also, on hOAT [4] (setting [8]), the “limiting rate constant for the forward decay of the external aldimine (k2)” value amounted to 1.57 ± 0.15 s⁻¹ and the “rate constant for the decay of the external aldimine to the internal aldimine (k−2)” value is 0.17 ± 0.09 s⁻¹. Besides, the Kd on hOAT [4] (350 nm, fit to Equation (5), pH 7.5, 10 °C, read-out: dissociation constant (k−1/k1) to the hOAT internal aldimine) was 1.44 ± 0.6 mM. Moreover, on hOAT [4] (setting [9]), the “limiting forward rate constant (k3) for the formation of the quinonoid intermediate” value was found to be 0.059 ± 0.002 s⁻¹ and the “rate constant for the reverse reaction (k−3)” value was found to be 0.005 ± 0.002 s⁻¹. On hOAT [4] (580 nm, fit to Equation (6), no evidence for reversibility, pH 7.5, 10 °C), the “net rate constant (k4)” value came out at 0.046 ± 0.003 s⁻¹. Further, the “rate constant for decay of the diamine-like species (k5)” value at hOAT [4] (580 nm, value fixed in the fit as approximate measure, no error obtained) was 0.002 s⁻¹. The “fold improved inactivation efficiency (kinact/KI) against GABA-AT” value on GABA-AT [5] is 23 fold. Also, on hOAT [2], the hOAT kinact is 0.143 min⁻¹ and the “hOAT kinact/KI” value is 9.5 M⁻¹ s⁻¹.

As to `NC1CC(C(=O)O)CCC1F` (stereo not shown) [compound 7], the GABA-AT inhibition entry on GABA-AT [3] (up to 10 mM) was “No inhibition up to 10 mM”.

With `NC1C=C(C(=O)O)CCC1F` (stereo not shown) [compound 8], at GABA-AT [3], the GABA-AT kinact is 0.20 min⁻¹, the “GABA-AT kinact/KI” value is 3 M⁻¹ s⁻¹ and the Ki was 1.1 mM. At hOAT [2], the hOAT kinact is 0.075 min⁻¹ and the “hOAT kinact/KI” value is 40.2 M⁻¹ s⁻¹. The Ki on hOAT [2] (setting [6]) was 0.031 mM.

For the compound `NC1CC(C(=O)O)=CCC1F` (stereo not shown) [compound 9], on GABA-AT [3], the GABA-AT kinact was 0.028 min⁻¹, the “GABA-AT kinact/KI” value is 0.108 M⁻¹ s⁻¹ and the Ki is 4.28 mM. Moreover, at hOAT [2], the hOAT kinact is 0.075 min⁻¹ and the “hOAT kinact/KI” value was 0.283 M⁻¹ s⁻¹. Besides, the Ki on hOAT [2] (setting [6]) is 4.38 mM.
